Patent US20260256792A1, “TREATMENT OF CHRONIC SPONTANEOUS URTICARIA BY ADMINISTERING (R)-2-[3-[4-AMINO-3-(2-FLUORO-4-PHENOXY-PHENYL)PYRAZOLO[3,4-D]PYRIMIDIN-1-YL]PIPERIDINE-1-CARBONYL]-4-METHYL-4-[4-(OXETAN-3-YL)PIPERAZIN-1-YL]PENT-2-ENENITRILE” (priority 2023, published 2026)

Tested on: moderate-to-severe chronic spontaneous urticaria (CSU)
Experiment: Phase 2 CSU study: urticaria activity score over 7 days (UAS7)
Type: in vivo, human
Conditions: Omalizumab-Naïve
Excerpt: The study comprises a 12 week, randomized, double-blind, placebo-controlled, multi-center, dose-ranging efficacy and safety phase, followed by a 40 week open label extension (OLE) phase (see FIG. 1). The study consists of three phases and an optional OLE phase. […] Clinically, CSU is characterized by the spontaneous and recurrent appearance of pruritic hives. The proposed primary endpoints were the UAS7 at Week 12 in EU and EU reference countries and the ISS7 in the US. Regardless of where a participant was from, all assessments were the same. The UAS7 score is a composite score containing both the HSS7 and the ISS7. This allowed a global assessment of the two key components of urticaria: hives and itch. […] The UAS is a validated PRO measure. […] The daily UAS scores range from 0 to 6 point/day. […] Patients were to complete the UAS using the e-diary. […] The following secondary endpoints were to be analyzed using the same approach as for the primary endpoint: • Change from baseline in UAS7 at Week 4 • Change from baseline in UAS7 at Week 12 (for US and US reference countries) • Change from baseline in ISS7 at Week 12 (except US and US reference countries) • Change from baseline in HSS7 at Week 12 The following responder secondary endpoints were to be analyzed using the Cochran-Mantel-Haenszel test adjusted by region: • Proportion of participants with UAS7<6 at Week 12 • Proportion of participants with UAS7=0 at Week 12 Participants who received selected prohibited medications and/or rescue medications were to be considered as non-responders for time points after the medication usage. For other participants, all available data including those collected during the off-treatment period were to be used to determine the responder/non-responder status. Missing data were to be considered as non-responders.

[1] = Baseline Total IgE (IU/mL) ≥300, 400 mg BID
[2] = Baseline Total IgE (IU/mL) ≥300, 400 mg QPM
[3] = Baseline Total IgE (IU/mL) ≥300, 400 mg TID
[4] = Baseline UAS7 score <28, 400 mg BID
[5] = Baseline UAS7 score <28, 400 mg QPM
[6] = Baseline UAS7 score <28, 400 mg TID
[7] = Baseline UAS7 score ≥28, 400 mg BID
[8] = Baseline UAS7 score ≥28, 400 mg QPM
[9] = Baseline UAS7 score ≥28, 400 mg TID
[10] = Duration of disease (years) 2-10, 400 mg BID
[11] = Duration of disease (years) 2-10, 400 mg QPM
[12] = Duration of disease (years) 2-10, 400 mg TID
[13] = Duration of disease (years) <2, 400 mg BID
[14] = Duration of disease (years) <2, 400 mg QPM
[15] = Duration of disease (years) <2, 400 mg TID
[16] = Duration of disease (years) >10, 400 mg BID
[17] = Duration of disease (years) >10, 400 mg QPM
[18] = Duration of disease (years) >10, 400 mg TID
[19] = Ethnicity Non-Hispanic, 400 mg BID
[20] = Ethnicity Non-Hispanic, 400 mg QPM

CC(C)(C=C(C#N)C(=O)N1CCC[C@@H](n2nc(-c3ccc(Oc4ccccc4)cc3F)c3c(N)ncnc32)C1)N1CCN(C2COC2)CC1 [rilzabrutinib, (R)-2-[3-[4-amino-3-(2-fluoro-4-phenoxy-phenyl)pyrazolo[3,4-d]pyrimidin-1-yl]piperidine-1-carbonyl]-4-methyl-4-[4-(oxetan-3-yl)piperazin-1-yl]pent-2-enenitrile]
Change from Baseline in UAS7 at Week 12: Mean (SD) (Baseline Total IgE (IU/mL) ≥100, 400 mg TID): −17.31 (9.51)
Change from Baseline in UAS7 at Week 12: LS Mean (SE) [1]: −14.22 (3.59)
Change from Baseline in UAS7 at Week 12: LS Mean Diff vs. placebo (95% CI) [1]: −1.77 (−12.00, 8.47)
Change from Baseline in UAS7 at Week 12: LS Mean (SE) [2]: −8.04 (3.57)
Change from Baseline in UAS7 at Week 12: LS Mean Diff vs. placebo (95% CI) [2]: 4.42 (−5.58, 14.42)
Change from Baseline in UAS7 at Week 12: Mean (SD) [2]: −9.60 (9.52)
Change from Baseline in UAS7 at Week 12: LS Mean (SE) [3]: −14.94 (3.46)
Change from Baseline in UAS7 at Week 12: LS Mean Diff vs. placebo (95% CI) [3]: −2.48 (−12.37, 7.41)
Change from Baseline in UAS7 at Week 12: Mean (SD) [3]: −16.12 (9.22)
Change from Baseline in UAS7 at Week 12: LS Mean Diff vs. placebo (95% CI) [4]: −4.49 (−12.35, 3.38)
Change from Baseline in UAS7 at Week 12: Mean (SD) [4]: −11.43 (8.06)
Change from Baseline in UAS7 at Week 12: LS Mean (SE) [5]: −5.87 (3.45)
Change from Baseline in UAS7 at Week 12: LS Mean Diff vs. placebo (95% CI) [5]: −1.46 (−10.06, 7.14)
Change from Baseline in UAS7 at Week 12: Mean (SD) [5]: −8.39 (3.86)
Change from Baseline in UAS7 at Week 12: LS Mean Diff vs. placebo (95% CI) [6]: −7.34 (−15.21, 0.52)
Change from Baseline in UAS7 at Week 12: Mean (SD) [6]: −13.43 (7.05)
Change from Baseline in UAS7 at Week 12: LS Mean (SE) [7]: −17.23 (2.81)
Change from Baseline in UAS7 at Week 12: LS Mean Diff vs. placebo (95% CI) [7]: −4.13 (−11.78, 3.52)
Change from Baseline in UAS7 at Week 12: Mean (SD) [7]: −16.73 (14.20)
Change from Baseline in UAS7 at Week 12: LS Mean (SE) [8]: −11.17 (2.39)
Change from Baseline in UAS7 at Week 12: LS Mean Diff vs. placebo (95% CI) [8]: 1.94 (−5.16, 9.03)
Change from Baseline in UAS7 at Week 12: LS Mean (SE) [9]: −19.91 (2.64)
Change from Baseline in UAS7 at Week 12: LS Mean Diff vs. placebo (95% CI) [9]: −6.81 (−14.23, 0.62)
Change from Baseline in UAS7 at Week 12: Mean (SD) [9]: −22.66 (12.35)
Change from Baseline in UAS7 at Week 12: Mean (SD) (Baseline weight (kg) <72.9 (Median), 400 mg BID): −12.97 (9.84)
Change from Baseline in UAS7 at Week 12: Mean (SD) (Baseline weight (kg) <72.9 (Median), 400 mg QPM): −7.98 (7.20)
Change from Baseline in UAS7 at Week 12: Mean (SD) (Baseline weight (kg) <72.9 (Median), 400 mg TID): −20.83 (13.25)
Change from Baseline in UAS7 at Week 12: LS Mean (SE) [10]: −12.88 (3.03)
Change from Baseline in UAS7 at Week 12: LS Mean Diff vs. placebo (95% CI) [10]: −0.05 (−8.24, 8.14)
Change from Baseline in UAS7 at Week 12: Mean (SD) [10]: −15.56 (14.75)
Change from Baseline in UAS7 at Week 12: LS Mean (SE) [11]: −9.73 (2.58)
Change from Baseline in UAS7 at Week 12: LS Mean Diff vs. placebo (95% CI) [11]: 3.11 (−4.51, 10.72)
Change from Baseline in UAS7 at Week 12: Mean (SD) [11]: −10.83 (9.70)
Change from Baseline in UAS7 at Week 12: LS Mean (SE) [12]: −16.44 (3.07)
Change from Baseline in UAS7 at Week 12: LS Mean Diff vs. placebo (95% CI) [12]: −3.61 (−11.80, 4.58)
Change from Baseline in UAS7 at Week 12: Mean (SD) [12]: −17.51 (11.39)
Change from Baseline in UAS7 at Week 12: LS Mean (SE) [13]: −16.30 (2.66)
Change from Baseline in UAS7 at Week 12: LS Mean Diff vs. placebo (95% CI) [13]: −9.24 (−17.02, −1.46)
Change from Baseline in UAS7 at Week 12: Mean (SD) [13]: −14.54 (10.00)
Change from Baseline in UAS7 at Week 12: LS Mean (SE) [14]: −10.62 (3.36)
Change from Baseline in UAS7 at Week 12: LS Mean Diff vs. placebo (95% CI) [14]: −3.55 (−12.28, 5.17)
Change from Baseline in UAS7 at Week 12: LS Mean (SE) [15]: −17.20 (3.03)
Change from Baseline in UAS7 at Week 12: LS Mean Diff vs. placebo (95% CI) [15]: −10.14 (−18.42, −1.86)
Change from Baseline in UAS7 at Week 12: Mean (SD) [15]: −19.20 (11.00)
Change from Baseline in UAS7 at Week 12: LS Mean (SE) [16]: 8.87 (12.67)
Change from Baseline in UAS7 at Week 12: LS Mean Diff vs. placebo (95% CI) [16]: 14.79 (−14.26, 43.85)
Change from Baseline in UAS7 at Week 12: Mean (SD) [16]: −1.83 (NC)
Change from Baseline in UAS7 at Week 12: LS Mean Diff vs. placebo (95% CI) [17]: 4.87 (−13.68, 23.41)
Change from Baseline in UAS7 at Week 12: Mean (SD) [17]: −4.70 (7.74)
Change from Baseline in UAS7 at Week 12: LS Mean (SE) [18]: −18.73 (5.22)
Change from Baseline in UAS7 at Week 12: LS Mean Diff vs. placebo (95% CI) [18]: −12.81 (−29.81, 4.20)
Change from Baseline in UAS7 at Week 12: Mean (SD) [18]: −23.13 (14.76)
Change from Baseline in UAS7 at Week 12: LS Mean (SE) (Ethnicity Hispanic, 400 mg BID): −10.31 (3.59)
Change from Baseline in UAS7 at Week 12: LS Mean Diff vs. placebo (95% CI) (Ethnicity Hispanic, 400 mg BID): 2.24 (−7.72, 12.19)
Change from Baseline in UAS7 at Week 12: Mean (SD) (Ethnicity Hispanic, 400 mg BID): −10.23 (11.81)
Change from Baseline in UAS7 at Week 12: LS Mean (SE) (Ethnicity Hispanic, 400 mg QPM): −8.80 (2.97)
Change from Baseline in UAS7 at Week 12: LS Mean Diff vs. placebo (95% CI) (Ethnicity Hispanic, 400 mg QPM): 3.74 (−5.35, 12.83)
Change from Baseline in UAS7 at Week 12: Mean (SD) (Ethnicity Hispanic, 400 mg QPM): −10.26 (9.92)
Change from Baseline in UAS7 at Week 12: LS Mean (SE) (Ethnicity Hispanic, 400 mg TID): −13.76 (3.78)
Change from Baseline in UAS7 at Week 12: LS Mean Diff vs. placebo (95% CI) (Ethnicity Hispanic, 400 mg TID): −1.22 (−11.34, 8.91)
Change from Baseline in UAS7 at Week 12: Mean (SD) (Ethnicity Hispanic, 400 mg TID): −15.49 (12.69)
Change from Baseline in UAS7 at Week 12: LS Mean (SE) [19]: −16.16 (2.46)
Change from Baseline in UAS7 at Week 12: LS Mean Diff vs. placebo (95% CI) [19]: −7.92 (−14.63, −1.20)
Change from Baseline in UAS7 at Week 12: Mean (SD) [19]: −16.52 (12.39)
Change from Baseline in UAS7 at Week 12: LS Mean (SE) [20]: 9.79 (2.59)
Change from Baseline in UAS7 at Week 12: LS Mean Diff vs. placebo (95% CI) [20]: −1.54 (−8.49, 5.41)
